Data set [1] addresses Cytochrome P450 3A4 (Homo sapiens, UniProt P08684).
For data set [2], the target named is Estrogen receptor beta (Homo sapiens, UniProt Q92731).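 Also: recombinant ER-beta bound to coactivator SRC1 peptide in presence of estradiol agonist; inhibitors block coactivator peptide binding and lower the FRET signal.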
Data set [3] in a line: inhibitors of intracellular T. cruzi replication, confirmation, NIH3T3 host cells, beta-gal luminescence (AID 2044).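 Also: intracellular parasites grown in NIH/3T3 mouse fibroblasts as host cells; luminescent beta-galactosidase reporter signal from transgenic T. cruzi replicating inside host cells; inhibitors lower the luminescence signal.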 Type of data set: functional, cell-based.
Data set [4] is described as follows: cytotoxicity toward NIH3T3 fibroblasts, dose response, counter-screen, cell-based, ATP luminescence, mouse fibroblasts (AID 2010).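 Also: cells exposed to compound for about 90 hours before reading.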 Type of data set: functional. (Counterscreens check selectivity or assay interference.)
For data set [5], the target named is DNA dC->dU-editing enzyme APOBEC-3G (Homo sapiens, UniProt Q9HC16). As to the kind of experiment: Dose Response confirmation of small molecule APOBEC3G DNA Deaminase Inhibitors via a fluorescence-based single-stranded DNA deaminase assay. [Related pubchem assays (depositor defined):AID493012, AID493028]. Type of data set: functional.
The target of data set [6] is T1, Fatty acid synthase (Homo sapiens, UniProt P49327). Briefly: FAS thioesterase domain inhibitors, dose response, biochemical, kinetic fluorescence intensity (AID 624326).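 Also: rate of fluorescence rise from hydrolysis of a fluorogenic O-methyl fluorescein ester substrate.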 Type of data set: functional.
T1 sequence (P49327 whole entry, the tested form may be a part): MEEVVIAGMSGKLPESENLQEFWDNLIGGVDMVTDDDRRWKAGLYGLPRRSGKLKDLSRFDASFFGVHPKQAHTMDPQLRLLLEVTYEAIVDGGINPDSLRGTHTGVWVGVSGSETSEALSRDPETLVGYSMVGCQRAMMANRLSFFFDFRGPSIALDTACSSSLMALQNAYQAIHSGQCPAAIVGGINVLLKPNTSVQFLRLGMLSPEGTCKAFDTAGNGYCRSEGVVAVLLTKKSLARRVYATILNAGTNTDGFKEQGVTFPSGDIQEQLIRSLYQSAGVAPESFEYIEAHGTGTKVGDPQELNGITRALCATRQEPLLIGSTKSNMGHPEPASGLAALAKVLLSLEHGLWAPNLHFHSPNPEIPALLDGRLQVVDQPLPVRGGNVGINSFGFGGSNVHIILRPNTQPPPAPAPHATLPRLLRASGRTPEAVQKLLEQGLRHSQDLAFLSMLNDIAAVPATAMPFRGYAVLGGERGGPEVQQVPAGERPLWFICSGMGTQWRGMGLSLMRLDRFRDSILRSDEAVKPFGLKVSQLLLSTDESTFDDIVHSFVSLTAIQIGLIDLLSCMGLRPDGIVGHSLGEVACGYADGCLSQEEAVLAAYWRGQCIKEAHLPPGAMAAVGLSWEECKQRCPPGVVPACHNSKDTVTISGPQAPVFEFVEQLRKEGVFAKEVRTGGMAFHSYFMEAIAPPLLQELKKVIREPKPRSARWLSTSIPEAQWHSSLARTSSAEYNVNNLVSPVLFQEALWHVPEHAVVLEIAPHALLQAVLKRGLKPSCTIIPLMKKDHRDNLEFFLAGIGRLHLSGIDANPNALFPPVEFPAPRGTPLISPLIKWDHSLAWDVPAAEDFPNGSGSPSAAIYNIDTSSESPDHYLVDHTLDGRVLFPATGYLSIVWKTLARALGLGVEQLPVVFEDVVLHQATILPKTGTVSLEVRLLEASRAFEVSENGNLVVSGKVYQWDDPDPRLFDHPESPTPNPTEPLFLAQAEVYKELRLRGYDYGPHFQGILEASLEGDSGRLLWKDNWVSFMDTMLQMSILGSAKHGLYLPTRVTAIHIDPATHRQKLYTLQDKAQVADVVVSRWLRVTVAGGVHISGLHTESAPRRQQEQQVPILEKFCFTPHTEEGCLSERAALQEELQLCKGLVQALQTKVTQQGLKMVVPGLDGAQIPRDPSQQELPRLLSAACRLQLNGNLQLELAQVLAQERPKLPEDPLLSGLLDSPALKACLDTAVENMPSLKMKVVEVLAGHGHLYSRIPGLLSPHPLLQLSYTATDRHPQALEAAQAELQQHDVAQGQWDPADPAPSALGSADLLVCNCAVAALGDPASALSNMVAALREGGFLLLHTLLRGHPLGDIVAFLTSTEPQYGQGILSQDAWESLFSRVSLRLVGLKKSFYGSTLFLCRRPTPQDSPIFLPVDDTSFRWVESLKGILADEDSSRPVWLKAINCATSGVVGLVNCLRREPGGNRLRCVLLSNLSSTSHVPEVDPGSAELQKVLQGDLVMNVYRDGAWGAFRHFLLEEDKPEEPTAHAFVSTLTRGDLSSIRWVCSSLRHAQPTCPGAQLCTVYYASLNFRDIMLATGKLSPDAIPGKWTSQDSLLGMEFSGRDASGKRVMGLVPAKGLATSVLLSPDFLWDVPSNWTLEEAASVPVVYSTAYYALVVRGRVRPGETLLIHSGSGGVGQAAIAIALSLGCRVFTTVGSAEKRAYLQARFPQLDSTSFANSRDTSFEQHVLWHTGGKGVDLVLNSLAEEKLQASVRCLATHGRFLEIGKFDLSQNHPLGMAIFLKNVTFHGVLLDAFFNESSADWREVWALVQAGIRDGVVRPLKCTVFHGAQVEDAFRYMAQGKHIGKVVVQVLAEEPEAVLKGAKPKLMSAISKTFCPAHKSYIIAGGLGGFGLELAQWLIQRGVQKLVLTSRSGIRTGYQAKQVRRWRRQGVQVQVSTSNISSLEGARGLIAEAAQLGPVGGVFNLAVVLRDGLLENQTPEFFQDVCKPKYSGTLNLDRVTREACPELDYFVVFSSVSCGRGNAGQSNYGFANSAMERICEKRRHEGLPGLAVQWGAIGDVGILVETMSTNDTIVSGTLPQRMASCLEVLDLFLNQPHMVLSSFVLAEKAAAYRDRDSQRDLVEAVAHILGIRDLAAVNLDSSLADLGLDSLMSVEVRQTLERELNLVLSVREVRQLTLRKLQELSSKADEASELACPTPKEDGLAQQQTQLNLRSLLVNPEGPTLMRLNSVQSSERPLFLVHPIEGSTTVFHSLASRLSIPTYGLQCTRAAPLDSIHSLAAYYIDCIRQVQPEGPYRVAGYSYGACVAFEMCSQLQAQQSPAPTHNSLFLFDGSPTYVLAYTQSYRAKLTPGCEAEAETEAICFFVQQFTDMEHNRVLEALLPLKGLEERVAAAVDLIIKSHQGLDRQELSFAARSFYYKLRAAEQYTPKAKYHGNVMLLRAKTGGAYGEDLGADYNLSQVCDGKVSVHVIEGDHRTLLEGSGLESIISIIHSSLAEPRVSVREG
Data set [7] concerns the target T1, Fatty acid synthase. Briefly: FAS thioesterase domain inhibitors, dose response, biochemical, endpoint fluorescence intensity, uHTS hits (AID 624327).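 Also: fluorescence from hydrolysis of an O-methyl fluorescein acyl ester substrate by the enzyme.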 Type of data set: functional.
Data set [8] addresses Eukaryotic translation initiation factor 4E (Mus musculus, UniProt P63073). Briefly: eIF4E–eIF4G protein interaction inhibitors, dose response, biochemical, TR-FRET (AID 855).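 Also: potency for disrupting eIF4E binding to eIF4GI seen as loss of FRET.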 Type of data set: functional.
The test system of data set [9] is H9c2. As to the kind of experiment: cells. Type of data set: functional, cell-based. The settings on record: Rattus norvegicus, H9c2, Myocardium.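 Also: confirmatory concentration-response retest of ultra-high-throughput screening hits for modulation of myocardial damage; cell death induced by hydrogen peroxide oxidative stress; compound pretreatment for 60 min then peroxide exposure for 2 h; potency is for protecting the cells against peroxide damage rather than for killing them.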
Data set [10] in a line: cells. The data set is classed as functional.
Data set [11] in a line: growth suppression of PTEN-null colon cells, dose response, cell-based, HCT116 PTEN knockout (AID 1047).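 Also: HCT116 colon tumor cells with PTEN knocked out; cells exposed to compound for 60 hours before readout; potency for loss of cell viability measured by luminescence.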 The data set is classed as functional.
A short description of data set [12]: growth suppression of beta-catenin-knockout colon cells, dose response, cell-based, HCT116, human colon tumor (AID 1045).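 Also: HCT116 colon tumor cells with beta catenin knocked out; cells exposed to compound for 60 hours.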 The data set is classed as functional.
For data set [13], the target named is Luciferin 4-monooxygenase (Photinus pyralis, UniProt P08659). As to the kind of experiment: firefly luciferase enzyme inhibitors, dose response, biochemical, luminescence (AID 1891).
A short description of data set [14]: Luminescence Cell-Based Dose Confirmation HTS to Identify Inhibitors of Platelet Dense Granule Release. [Related pubchem assays: 1663 (Primary HTS), 1678 (Summary of Project)]. The data set is classed as functional.
For data set [15], the target named is T2, Cytochrome P450 1A2 (Homo sapiens, UniProt P05177).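 Also: PubChem cytochrome P450 panel assay, CYP1A2 panel member.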
T2 sequence (P05177 whole entry): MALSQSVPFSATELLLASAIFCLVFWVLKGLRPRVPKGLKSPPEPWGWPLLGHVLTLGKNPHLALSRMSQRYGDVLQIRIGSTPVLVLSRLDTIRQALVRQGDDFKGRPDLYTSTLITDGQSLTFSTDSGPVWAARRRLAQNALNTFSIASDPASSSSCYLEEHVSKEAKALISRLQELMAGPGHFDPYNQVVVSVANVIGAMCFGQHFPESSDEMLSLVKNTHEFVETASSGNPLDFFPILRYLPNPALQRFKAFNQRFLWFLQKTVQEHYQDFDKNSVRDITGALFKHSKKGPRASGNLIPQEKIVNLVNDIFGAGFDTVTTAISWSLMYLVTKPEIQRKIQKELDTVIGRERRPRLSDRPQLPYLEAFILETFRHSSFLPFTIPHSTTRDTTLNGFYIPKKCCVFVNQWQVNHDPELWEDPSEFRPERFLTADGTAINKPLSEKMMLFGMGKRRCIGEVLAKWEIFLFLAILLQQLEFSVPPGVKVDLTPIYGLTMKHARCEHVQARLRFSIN

Data set [16] deals with Cytochrome P450 2C19 (Homo sapiens, UniProt P33261). As to the kind of experiment: Cytochrome panel assay with activity outcomes. Panel member name: p450-cyp2c19 Compounds with AC50 equal or less than 10 uM are considered active. Type of data set: functional. Conditions: read-out: AC50.
Cytochrome P450 2C19, sequence (P33261 whole entry): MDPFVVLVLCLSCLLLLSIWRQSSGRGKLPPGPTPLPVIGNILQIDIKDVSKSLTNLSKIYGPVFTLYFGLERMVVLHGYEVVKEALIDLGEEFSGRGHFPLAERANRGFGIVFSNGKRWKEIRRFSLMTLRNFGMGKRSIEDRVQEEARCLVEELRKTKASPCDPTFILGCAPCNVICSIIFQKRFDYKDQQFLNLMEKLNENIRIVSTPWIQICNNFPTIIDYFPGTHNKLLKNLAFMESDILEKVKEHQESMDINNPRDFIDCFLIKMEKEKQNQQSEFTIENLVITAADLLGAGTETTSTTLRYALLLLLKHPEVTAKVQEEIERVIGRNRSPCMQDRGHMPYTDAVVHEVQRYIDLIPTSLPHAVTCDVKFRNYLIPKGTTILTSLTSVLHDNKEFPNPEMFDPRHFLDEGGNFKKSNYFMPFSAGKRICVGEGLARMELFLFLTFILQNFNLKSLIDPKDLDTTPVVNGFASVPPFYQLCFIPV
In data set [17] the target is Cytochrome P450 2C9 (Homo sapiens, UniProt P11712).
Data set [18] addresses Paired box protein Pax-8 (Homo sapiens, UniProt Q06710). As to the kind of experiment: inhibitors of PAX8-driven TPO luciferase reporter, dose response, RMG-I cells, cherry-pick (AID 687027).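 Also: luciferase reporter driven by Pax8 target thyroperoxidase promoter measured by SteadyGlo luminescence.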 The data set is classed as functional, cell-based.
Data set [19] can be described thus: cytotoxicity in OVCAR8 ovarian cancer cells, dose response, PAX8 project, cell-based, plate reader, dry powder samples (AID 743197). The data set is classed as functional. The settings on record: OVCAR-8.

Activity calls are given as the source filed them. Where only a bound is given, the exact number is not on record here.

Paired box protein Pax-8, sequence (Q06710 whole entry): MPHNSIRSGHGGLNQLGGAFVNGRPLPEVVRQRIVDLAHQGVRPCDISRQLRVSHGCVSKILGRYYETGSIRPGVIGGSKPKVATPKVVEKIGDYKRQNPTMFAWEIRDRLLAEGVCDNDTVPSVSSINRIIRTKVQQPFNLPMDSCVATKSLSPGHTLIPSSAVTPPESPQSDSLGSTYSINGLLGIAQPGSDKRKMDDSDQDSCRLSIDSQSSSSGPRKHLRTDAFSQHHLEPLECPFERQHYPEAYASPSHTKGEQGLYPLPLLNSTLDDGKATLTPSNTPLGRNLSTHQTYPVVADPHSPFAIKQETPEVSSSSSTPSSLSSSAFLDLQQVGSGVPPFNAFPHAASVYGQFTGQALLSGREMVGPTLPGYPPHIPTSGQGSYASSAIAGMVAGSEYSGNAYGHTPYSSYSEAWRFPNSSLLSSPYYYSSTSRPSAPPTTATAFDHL
Estrogen receptor beta, sequence (Q92731 whole entry): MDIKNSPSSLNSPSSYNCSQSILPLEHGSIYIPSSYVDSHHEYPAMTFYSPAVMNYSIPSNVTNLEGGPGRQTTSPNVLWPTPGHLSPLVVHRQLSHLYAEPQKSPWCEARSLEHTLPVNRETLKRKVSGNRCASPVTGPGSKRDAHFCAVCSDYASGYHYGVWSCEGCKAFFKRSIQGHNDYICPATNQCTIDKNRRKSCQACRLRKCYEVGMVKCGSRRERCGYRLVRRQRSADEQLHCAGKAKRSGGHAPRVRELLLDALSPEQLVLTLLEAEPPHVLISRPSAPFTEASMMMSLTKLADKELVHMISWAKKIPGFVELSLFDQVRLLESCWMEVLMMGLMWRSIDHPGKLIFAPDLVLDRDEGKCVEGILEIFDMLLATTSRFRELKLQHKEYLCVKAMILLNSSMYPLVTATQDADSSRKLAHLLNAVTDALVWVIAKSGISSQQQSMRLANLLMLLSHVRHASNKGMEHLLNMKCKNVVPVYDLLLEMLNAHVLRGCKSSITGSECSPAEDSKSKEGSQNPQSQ
Cytochrome P450 3A4, sequence (P08684 whole entry): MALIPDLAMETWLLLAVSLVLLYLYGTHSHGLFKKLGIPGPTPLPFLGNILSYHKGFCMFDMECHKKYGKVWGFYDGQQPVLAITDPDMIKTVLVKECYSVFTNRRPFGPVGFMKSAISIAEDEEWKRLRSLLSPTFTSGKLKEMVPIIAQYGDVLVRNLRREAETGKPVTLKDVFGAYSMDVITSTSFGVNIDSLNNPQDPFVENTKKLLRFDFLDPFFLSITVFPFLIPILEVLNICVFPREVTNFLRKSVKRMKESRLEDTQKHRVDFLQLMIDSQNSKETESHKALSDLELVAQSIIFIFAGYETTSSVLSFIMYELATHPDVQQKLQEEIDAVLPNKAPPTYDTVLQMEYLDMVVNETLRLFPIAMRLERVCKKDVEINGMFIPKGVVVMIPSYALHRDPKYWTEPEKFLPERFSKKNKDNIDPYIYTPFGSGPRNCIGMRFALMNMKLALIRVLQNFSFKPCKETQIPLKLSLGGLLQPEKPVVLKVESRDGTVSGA
Eukaryotic translation initiation factor 4E, sequence (P63073 whole entry): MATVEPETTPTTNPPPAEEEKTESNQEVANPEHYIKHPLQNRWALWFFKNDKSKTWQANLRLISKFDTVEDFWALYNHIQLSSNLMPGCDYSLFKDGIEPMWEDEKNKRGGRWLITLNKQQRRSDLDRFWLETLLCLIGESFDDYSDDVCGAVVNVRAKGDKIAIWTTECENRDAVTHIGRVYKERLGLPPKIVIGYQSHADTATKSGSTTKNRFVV

Take `O=C(c1ccco1)N1CCC2(CCN(Cc3ccccc3)CC2)CC1`: in [1], the AC50 (in general, the concentration at which the activity in the assay is half-maximal) is given as “inconclusive”.
As for `CCOc1ccccc1C(=O)N1CCN=C1SC`, the IC50 (as a rule, the concentration needed to halve the response being measured) in [2] is given as > 50 µM (not active).
As for `COc1ccccc1NS(=O)(=O)c1cc(NC(=O)C2CCC2)ccc1N1CCCCC1`, the EC50 – broadly, the midpoint of the concentration-response curve – is 2.44 µM (active) in data set [3] and > 30 µM (not active) in data set [4]. The IC50 in [5] was 46.8 µM (active).
With `O=C(O)CCCNc1c(C(=O)Nc2ccc(Cl)cc2)cc([N+](=O)[O-])cc1[N+](=O)[O-]`, the IC50 in data set [6] was 4.79 µM (active); in [7], 5.31 µM (active).
For `C=CCn1c(-c2cc(OC)c(OC)c(OC)c2)n[nH]c1=S`, the IC50 in [8] was > 64 µM (inactive).
As for `O=C(COC(=O)c1ccc([N+](=O)[O-])s1)Nc1ccc(Cl)cn1`, the IC50 in data set [9] was 22.2 µM (active); in data set [10], 8.49 µM (active).
`CCOC(=O)CNC(=O)C(Cc1ccccc1)NS(=O)(=O)c1ccc2c(c1)CCC(=O)N2` (configuration not stated): in [2], the IC50 is given as > 50 µM (not active).
Take `COCCNC(=O)CCCn1c(=O)c2ccccc2n(Cc2cccc([N+](=O)[O-])c2)c1=O`: the IC50 in [6] is 15.8 µM (active); in data set [7] it was 11.6 µM (active).
On to `CCN1C2=C(C(=O)CCC2)C(c2ccc(O)c(Br)c2)C2=C1CCCC2=O`, for which the IC50 in data set [2] is > 50 µM (not active).
On to `O=C(Nc1nc(-c2cc(Cl)sc2Cl)cs1)c1ccc(Br)s1`, for which the results for the EC50 in [11] and in [12] were 17.1 µM (active) and 20.2 µM (active), respectively.
`O=C(NCCCCc1ccccc1)C1CC(c2ccc([N+](=O)[O-])cc2)=NO1` (configuration not stated): the IC50 was 14.1 µM (active) in data set [6] and 13.6 µM (active) in [7].
As to `O=C(c1ccco1)N1CCC2(CCN(Cc3nccs3)CC2)CC1`, the AC50 entry in data set [1] was “inconclusive”.
Regarding `COC(=O)C1(C(F)(F)F)N=C2Sc3ccccc3N2C(N2CCOCC2)=N1` (configuration not stated), the EC50 was 23.9 µM (active) in [11], > 112 µM (not active) in data set [13], > 112 µM (not active) in data set [14] and 21.7 µM (active) in data set [12].
Turning to `Cc1ccc(C(=O)ON=C2CCN(S(=O)(=O)c3ccccc3)CC2)cc1`, the values for the AC50 in data set [15], in data set [16] and in [1] were 28.2 µM (inconclusive), 5.01 µM (inconclusive) and “inconclusive”, respectively.
Regarding `Cc1oc(-c2ccc(Cl)cc2)nc1CN1CCC(C(=O)N2CCc3ccccc3C2)CC1`, the EC50 in data set [11] is 16.5 µM (active); in data set [12], 14.7 µM (active).
Consider `CC(C)(C)c1ccc(C(=O)NC(Cc2ccccc2)C(=O)O)cc1` (configuration not stated), for which the values for the AC50 in data set [16], in [17] and in data set [1] were 22.4 µM (inconclusive), 25.1 µM (inconclusive) and “inconclusive”, respectively.
`C[C@H](CO)N1C[C@H](C)[C@@H](CN(C)C(=O)NC2CCCCC2)Oc2c(NC(=O)Nc3ccc4c(c3)OCO4)cccc2C1=O`: the IC50 is 4.32 µM (active) in data set [6] and 1.66 µM (active) in data set [7].
As for `CCOc1ccc(Cl)cc1CNCCNCC(C)O.Cl` (configuration not stated), the AC50 result in data set [1] is recorded as “inconclusive”.
As to `O=C(Nc1cccc(F)c1)N1CCCCN2[C@@H](CO)[C@@H](c3ccc(-c4ccncc4)cc3)[C@@H]2C1`, the AC50 is 32.2 µM (active) in data set [18] and > 70 µM (inactive) in [19].
Taken in the same sequence, the figures for `CCCC#Cc1ccc([C@H]2[C@H]3CN(S(=O)(=O)Cc4ccccc4)CCCCN3[C@H]2CO)cc1` were 10.9 µM (active) and 60.2 µM (active).
On to `CN1c2ccc(-c3ccccc3)cc2[C@@H]2[C@@H](CCN2C(=O)NC2CCCCC2)[C@@H]1CO`, for which the AC50 in [18] is 11.1 µM (active); in data set [19], 49.6 µM (active).
For the compound `O=S1(=O)CC/C(=N/Nc2ccc(C(F)(F)F)cn2)c2cc(F)ccc21`, in data set [8], the IC50 was 50 µM (inactive).
In the case of `O=C(O)CC(O)C(=O)O` (configuration not stated) [MALIC ACID], in data set [1], the AC50 entry is recorded as “inconclusive”.

(Values after ChEMBL document CHEMBL1201862, “PubChem BioAssay data set” (2004).)
